Test results published in the CheMixHub viscosity set.
Where “and” joins values, the source holds several entries; their conditions need not be identical. Equal entries are not always repeated.

Assay: xn = mol fraction of the nth substance listed

CC(N)CN (configuration not stated) + O
viscosity [mPa·s], 101 kPa
Conditions | 298.15 K | 303.15 K | 308.15 K | 313.15 K | 318.15 K | 323.15 K
x1 = 0.0997 | 6.527 | 5.479 | 4.625 | 3.878 | 3.237 | –
x1 = 0.0998 | – | 3.004 | 2.529 | 2.154 | 1.855 | 1.625
x1 = 0.1997 | – | 6.596 | 5.258 | 4.287 | 3.559 | 2.977
x1 = 0.2002 | 9.458 | 7.901 | 6.605 | 5.522 | 4.611 | –
x1 = 0.2522 | – | 7.702 | 6.095 | 4.913 | 4.041 | 3.365
x1 = 0.2992 | – | 8.043 | 6.383 | 5.139 | 4.211 | 3.495
x1 = 0.2998 | 10.24 | 8.542 | 7.121 | 5.956 | 4.993 | –
x1 = 0.3412 | – | 7.793 | 6.196 | 5.033 | 4.11 | 3.452
x1 = 0.3995 | 9.546 | 7.939 | 6.633 | 5.555 | 4.676 | –
x1 = 0.4012 | – | 7.095 | 5.678 | 4.69 | 3.823 | 3.204
x1 = 0.4957 | 8.037 | 6.649 | 5.591 | 4.69 | 3.961 | –
x1 = 0.5022 | – | 5.538 | 4.504 | 3.734 | 3.14 | 2.671
x1 = 0.6011 | – | 3.921 | 3.288 | 2.792 | 2.395 | 2.08
x1 = 0.6024 | 6.005 | 4.915 | 4.178 | 3.516 | 2.983 | –
x1 = 0.6913 | – | 2.844 | 2.443 | 2.113 | 1.85 | 1.632
x1 = 0.694 | 4.35 | 3.566 | 3.067 | 2.603 | 2.23 | –
x1 = 0.7912 | – | 2.119 | 1.854 | 1.634 | 1.45 | 1.302
x1 = 0.7949 | 2.882 | 2.425 | 2.098 | 1.814 | 1.585 | –
x1 = 0.8901 | 1.975 | 1.752 | 1.508 | 1.337 | 1.199 | –
x1 = 0.8998 | – | 1.689 | 1.501 | 1.312 | 1.216 | 1.101

Cc1cccc(C)n1 + O
Conditions | viscosity
293.18 K, 101 kPa, x1 = 0.06338 | 2.838 mPa·s
295.15 K, 101 kPa, x1 = 0.0183 | 1.357 mPa·s
295.15 K, 101 kPa, x1 = 0.0403 | 1.932 mPa·s
295.15 K, 101 kPa, x1 = 0.0675 | 2.915 mPa·s
295.15 K, 101 kPa, x1 = 0.0833 | 3.276 mPa·s
295.15 K, 101 kPa, x1 = 0.144 | 4.298 mPa·s
295.15 K, 101 kPa, x1 = 0.282 | 5.153 mPa·s
295.15 K, 101 kPa, x1 = 0.402 | 4.278 mPa·s
295.15 K, 101 kPa, x1 = 0.602 | 2.687 mPa·s
296.18 K, 101 kPa, x1 = 0.06338 | 2.578 mPa·s
298.12 K, 101 kPa, x1 = 0.3006 | 4.353 mPa·s
298.15 K, 101 kPa, x1 = 0.02034 | 1.346 mPa·s
298.15 K, 101 kPa, x1 = 0.0297 | 1.553 mPa·s
298.15 K, 101 kPa, x1 = 0.05039 | 2.066 mPa·s
298.15 K, 101 kPa, x1 = 0.07682 | 2.713 mPa·s
298.15 K, 101 kPa, x1 = 0.1166 | 3.638 mPa·s
298.15 K, 101 kPa, x1 = 0.1208 | 3.916 mPa·s
298.16 K, 101 kPa, x1 = 0.5008 | 2.844 mPa·s
298.17 K, 101 kPa, x1 = 0.3981 | 3.708 mPa·s
298.18 K, 101 kPa, x1 = 0.06338 | 2.428 mPa·s
298.19 K, 101 kPa, x1 = 0.0602 | 2.361 mPa·s
298.19 K, 101 kPa, x1 = 0.7887 | 1.038 mPa·s
298.2 K, 101 kPa, x1 = 0.1001 | 3.14 mPa·s
298.2 K, 101 kPa, x1 = 0.651 | 1.812 mPa·s
298.21 K, 101 kPa, x1 = 0.0501 | 2.095 mPa·s
298.23 K, 101 kPa, x1 = 0.2004 | 4.298 mPa·s
299.18 K, 101 kPa, x1 = 0.06338 | 2.36 mPa·s
300.12 K, 101.33 kPa, x1 = 0.0182 | 1.217 mPa·s
300.18 K, 101 kPa, x1 = 0.06338 | 2.291 mPa·s
301.18 K, 101 kPa, x1 = 0.06338 | 2.243 mPa·s
302.02 K, 101 kPa, x1 = 0.0297 | 1.415 mPa·s
302.18 K, 101 kPa, x1 = 0.06338 | 2.182 mPa·s
303.02 K, 101 kPa, x1 = 0.2004 | 3.54 mPa·s
303.05 K, 101 kPa, x1 = 0.0602 | 2.172 mPa·s
303.08 K, 101 kPa, x1 = 0.1001 | 2.712 mPa·s
303.12 K, 101.33 kPa, x1 = 0.0182 | 1.132 mPa·s
303.17 K, 101 kPa, x1 = 0.0501 | 1.932 mPa·s
303.17 K, 101 kPa, x1 = 0.3006 | 3.538 mPa·s
303.18 K, 101 kPa, x1 = 0.06338 | 2.136 mPa·s
303.19 K, 101 kPa, x1 = 0.3981 | 3.072 mPa·s
303.19 K, 101 kPa, x1 = 0.5008 | 2.464 mPa·s
303.23 K, 101 kPa, x1 = 0.7887 | 0.955 mPa·s
303.26 K, 101 kPa, x1 = 0.651 | 1.593 mPa·s
304.18 K, 101 kPa, x1 = 0.06338 | 2.093 mPa·s
304.48 K, 101 kPa, x1 = 0.06338 | 2.084 mPa·s
304.78 K, 101 kPa, x1 = 0.06338 | 2.076 mPa·s
304.98 K, 101 kPa, x1 = 0.06338 | 2.071 mPa·s
305.18 K, 101 kPa, x1 = 0.06338 | 2.066 mPa·s
305.38 K, 101 kPa, x1 = 0.06338 | 2.063 mPa·s
305.58 K, 101 kPa, x1 = 0.06338 | 2.064 mPa·s
305.78 K, 101 kPa, x1 = 0.06338 | 2.065 mPa·s
305.98 K, 101 kPa, x1 = 0.06338 | 2.065 mPa·s
306.18 K, 101 kPa, x1 = 0.06338 | 2.058 mPa·s
306.28 K, 101 kPa, x1 = 0.06338 | 2.074 mPa·s
306.38 K, 101 kPa, x1 = 0.06338 | 2.083 mPa·s
306.48 K, 101 kPa, x1 = 0.06338 | 2.088 mPa·s
306.58 K, 101 kPa, x1 = 0.06338 | 2.101 mPa·s
306.68 K, 101 kPa, x1 = 0.06338 | 2.124 mPa·s
306.78 K, 101 kPa, x1 = 0.06338 | 2.141 mPa·s
306.83 K, 101 kPa, x1 = 0.06338 | 2.151 mPa·s
306.88 K, 101 kPa, x1 = 0.06338 | 2.183 mPa·s
306.9 K, 101 kPa, x1 = 0.06338 | 2.198 mPa·s
306.93 K, 101 kPa, x1 = 0.06338 | 2.22 mPa·s
306.95 K, 101 kPa, x1 = 0.06338 | 2.242 mPa·s
306.97 K, 101 kPa, x1 = 0.06338 | 2.27 mPa·s
306.98 K, 101 kPa, x1 = 0.06338 | 2.291 mPa·s
306.99 K, 101 kPa, x1 = 0.06338 | 2.316 mPa·s
307 K, 101 kPa, x1 = 0.06338 | 2.344 mPa·s and 2.36 mPa·s
307.01 K, 101 kPa, x1 = 0.06338 | 2.384 mPa·s and 2.396 mPa·s and 2.405 mPa·s
307.35 K, 101 kPa, x1 = 0.043 | 1.5 mPa·s
307.35 K, 101 kPa, x1 = 0.0974 | 1.8 mPa·s
307.65 K, 101 kPa, x1 = 0.0403 | 1.35 mPa·s
307.65 K, 101 kPa, x1 = 0.105 | 1.95 mPa·s
308.15 K, 101 kPa, x1 = 0.0349 | 1.2 mPa·s
308.15 K, 101 kPa, x1 = 0.116 | 2.2 mPa·s
308.18 K, 101 kPa, x1 = 0.5008 | 2.071 mPa·s
308.21 K, 101 kPa, x1 = 0.3981 | 2.587 mPa·s
308.23 K, 101 kPa, x1 = 0.7887 | 0.881 mPa·s
308.26 K, 101 kPa, x1 = 0.651 | 1.413 mPa·s
309.15 K, 101 kPa, x1 = 0.0288 | 1.1 mPa·s
309.15 K, 101 kPa, x1 = 0.131 | 2.57 mPa·s
311.15 K, 101 kPa, x1 = 0.0204 | 0.96 mPa·s
311.15 K, 101 kPa, x1 = 0.155 | 2.47 mPa·s
313.15 K, 101 kPa, x1 = 0.0185 | 0.88 mPa·s
313.15 K, 101 kPa, x1 = 0.172 | 2.38 mPa·s
313.25 K, 101 kPa, x1 = 0.5008 | 1.794 mPa·s
313.31 K, 101 kPa, x1 = 0.3981 | 2.196 mPa·s
313.32 K, 101 kPa, x1 = 0.651 | 1.262 mPa·s
313.34 K, 101 kPa, x1 = 0.7887 | 0.815 mPa·s
318.3 K, 101 kPa, x1 = 0.5008 | 1.571 mPa·s
318.34 K, 101 kPa, x1 = 0.3981 | 1.902 mPa·s
318.36 K, 101 kPa, x1 = 0.7887 | 0.758 mPa·s
318.37 K, 101 kPa, x1 = 0.651 | 1.134 mPa·s
319.15 K, 101 kPa, x1 = 0.017 | 0.73 mPa·s
319.15 K, 101 kPa, x1 = 0.218 | 1.81 mPa·s
323.15 K, 101 kPa, x1 = 0.013 | 0.63 mPa·s
323.15 K, 101 kPa, x1 = 0.236 | 1.7 mPa·s

CC(N)CN (configuration not stated) + OCCCCO
viscosity [mPa·s], 101.33 kPa
Conditions | 293.15 K | 298.15 K | 303.15 K | 308.15 K | 313.15 K | 318.15 K
x2 = 0.0415 | 2.17 | 1.92 | 1.66 | 1.48 | 1.3 | 1.21
x2 = 0.0837 | 2.83 | 2.5 | 2.1 | 1.86 | 1.63 | 1.54
x2 = 0.1267 | 3.76 | 3.28 | 2.72 | 2.37 | 2.07 | 1.91
x2 = 0.1705 | 5.08 | 4.37 | 3.59 | 3.08 | 2.65 | 2.44
x2 = 0.2152 | 6.86 | 5.84 | 4.71 | 4.02 | 3.41 | 3.11
x2 = 0.2606 | 8.9 | 7.88 | 6.27 | 5.26 | 4.42 | –
x2 = 0.3069 | 13.32 | 10.91 | 8.54 | 7.05 | 5.85 | –
x2 = 0.3541 | 18.39 | 14.82 | 11.39 | 9.32 | 7.62 | –
x2 = 0.4022 | 25.44 | 20.09 | 15.23 | 12.31 | 9.87 | –
x2 = 0.4513 | 34.76 | 27.12 | 20.33 | 16.17 | 13.1 | –
x2 = 0.5013 | 47.13 | 36.26 | 26.83 | 21.01 | 16.42 | –
x2 = 0.5523 | 61.72 | 47.01 | 34.44 | 26.7 | 20.75 | –
x2 = 0.6043 | 75.89 | 57.65 | 42 | 32.37 | 25.02 | –
x2 = 0.6574 | 90.68 | 69.04 | 50.16 | 38.64 | 29.82 | –
x2 = 0.7116 | 99.83 | 76.3 | 55.75 | 42.89 | 33.12 | –
x2 = 0.7669 | 106 | 81.64 | 60.1 | 46.57 | 36.08 | –
x2 = 0.8233 | 107.2 | 83.62 | 61.98 | 48.39 | 37.8 | –
x2 = 0.881 | 104.3 | 82.14 | 61.43 | 48.46 | 38.15 | –
x2 = 0.9399 | 98.79 | 78.35 | 59.29 | 47.22 | 37.43 | –
